According to patent US7087631B2, “Aryltetrazole compounds, and compositions thereof” (Inotek Pharmaceuticals Corporation, priority 2002, dated 2006):

Biological target: xanthine oxidase (Homo sapiens, UniProt P47989)
Test: Xanthine oxidase inhibitory activity, 96 well plate, kinetic reading at 295 nm
Format: biochemical

Chain of xanthine oxidase (P47989 whole entry, species assumed): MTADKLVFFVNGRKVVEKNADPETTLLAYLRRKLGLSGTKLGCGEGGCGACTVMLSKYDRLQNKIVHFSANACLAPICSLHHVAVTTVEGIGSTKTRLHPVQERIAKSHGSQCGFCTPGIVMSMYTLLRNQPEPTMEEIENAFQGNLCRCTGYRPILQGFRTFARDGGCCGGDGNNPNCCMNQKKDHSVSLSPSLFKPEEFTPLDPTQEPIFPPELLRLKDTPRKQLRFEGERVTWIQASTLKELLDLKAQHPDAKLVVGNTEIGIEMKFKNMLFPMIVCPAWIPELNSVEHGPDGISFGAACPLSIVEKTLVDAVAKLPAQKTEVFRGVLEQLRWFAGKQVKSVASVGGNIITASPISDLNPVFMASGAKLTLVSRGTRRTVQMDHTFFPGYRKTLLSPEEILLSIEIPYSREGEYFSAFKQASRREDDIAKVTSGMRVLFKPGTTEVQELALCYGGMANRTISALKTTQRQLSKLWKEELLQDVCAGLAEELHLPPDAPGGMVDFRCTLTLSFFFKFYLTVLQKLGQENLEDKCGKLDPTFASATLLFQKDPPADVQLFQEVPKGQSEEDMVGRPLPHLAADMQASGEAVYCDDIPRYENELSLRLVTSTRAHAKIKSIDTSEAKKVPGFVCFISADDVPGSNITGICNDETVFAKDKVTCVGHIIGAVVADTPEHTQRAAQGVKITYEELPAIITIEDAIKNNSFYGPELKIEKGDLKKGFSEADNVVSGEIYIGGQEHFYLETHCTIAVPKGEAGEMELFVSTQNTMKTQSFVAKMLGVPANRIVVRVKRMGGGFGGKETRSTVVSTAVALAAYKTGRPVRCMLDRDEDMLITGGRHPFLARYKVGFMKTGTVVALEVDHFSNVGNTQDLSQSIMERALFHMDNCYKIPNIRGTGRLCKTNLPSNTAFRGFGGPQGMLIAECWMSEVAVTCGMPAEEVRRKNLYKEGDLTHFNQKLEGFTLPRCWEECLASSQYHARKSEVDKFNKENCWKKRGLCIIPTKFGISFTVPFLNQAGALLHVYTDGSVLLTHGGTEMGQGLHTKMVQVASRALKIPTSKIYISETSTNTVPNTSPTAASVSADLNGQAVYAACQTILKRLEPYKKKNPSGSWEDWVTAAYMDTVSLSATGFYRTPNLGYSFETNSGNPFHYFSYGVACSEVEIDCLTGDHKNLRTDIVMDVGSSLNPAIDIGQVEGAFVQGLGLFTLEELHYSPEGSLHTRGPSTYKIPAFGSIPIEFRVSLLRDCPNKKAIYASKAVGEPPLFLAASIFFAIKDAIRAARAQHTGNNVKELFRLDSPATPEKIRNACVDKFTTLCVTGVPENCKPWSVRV

SMILES | PERCENT XANTHINE OXIDASE INHIBITION (compound concentration 100 μM) | PERCENT XANTHINE OXIDASE INHIBITION (compound concentration 1 μM) | PERCENT XANTHINE OXIDASE INHIBITION (compound concentration 10 μM) | PERCENT XANTHINE OXIDASE INHIBITION (compound concentration 0.03 μM) | PERCENT XANTHINE OXIDASE INHIBITION (compound concentration 0.1 μM)
CC(=O)Nc1ccc(-c2nn[nH]n2)cc1 [Compound FR] | 40% |  |  |  | 
Fc1ccc(-c2nnn[nH]2)cc1Cl [Compound HE] | 33% |  |  |  | 
O=C(/C=C/c1ccccc1)Nc1nnn[nH]1 [Compound HN] | 42% | 10% | 13% |  | 
O=C(Nc1ccc(F)cc1)c1ccc(-c2nnn[nH]2)cc1 [Compound HX] |  | 92% |  | 37% | 59%
CC(=O)c1cccc(NC(=O)c2ccc(-c3nnn[nH]3)cc2)c1 [Compound IA] |  | 90% |  | 31% | 54%
CC(C)COc1ccc(-c2nn[nH]n2)cc1 [Compound IR] |  | 88% |  | 28% | 47%
O=C(Nc1ccc(-c2nnn[nH]2)cc1)c1ccccc1 [Compound IT] |  | 56% |  | 7% | 15%
CC(C)COc1ccc(-c2nnn[nH]2)cc1Br [Compound JC] |  | 31% |  |  | 6%
CC(C)COc1ccc(-c2nnn[nH]2)cc1C#N [Compound JE] |  | 82% |  | 12% | 32%
c1ccc(-c2nnn[nH]2)cc1 [FF] | 10% |  |  |  | 
Clc1cccc(-c2nnn[nH]2)c1 [FG] | 34% |  |  |  | 
Clc1ccc(-c2nnn[nH]2)cc1 [FH] | 69% |  | 27% |  | 
Brc1ccc(-c2nnn[nH]2)cc1 [FI] | 67% |  | 21% |  | 
COc1ccc(-c2nnn[nH]2)cc1 [FK] | 71% |  | 30% |  | 
FC(F)(F)Oc1ccc(-c2nnn[nH]2)cc1 [FL] | 55% |  | 14% |  | 
Fc1ccc(-c2nnn[nH]2)cc1 [FM] | 78% |  | 19% |  | 
Cc1ccc(-c2nnn[nH]2)cc1 [FN] | 32% |  | 3% |  | 
Nc1ccc(-c2nnn[nH]2)cc1 [FO] | 30% |  | 3% |  | 
Fc1ccccc1-c1nnn[nH]1 [FP] | 21% |  | 3% |  | 
CNC(=O)Nc1ccc(-c2nnn[nH]2)cc1 [FS] | 10% |  |  |  | 
CC(=O)c1ccc(-c2nnn[nH]2)cc1 [FU] | 92% | 9% | 54% |  | 
CCOC(=O)c1ccc(-c2nnn[nH]2)cc1 [FV] | 100% | 64% | 92% |  | 
COC(=O)c1ccc(-c2nnn[nH]2)cc1 [FW] | 100% | 39% | 82% |  | 
CCCCOC(=O)c1ccc(-c2nnn[nH]2)cc1 [FX] | 95% | 73% | 95% |  | 
O=C(O)c1ccc(-c2nnn[nH]2)cc1 [FY] | 91% | 11% | 56% |  | 
CC(C)OC(=O)c1ccc(-c2nnn[nH]2)cc1 [FZ] | 100% | 88% | 97% |  | 
O=C(OCc1ccccc1)c1ccc(-c2nnn[nH]2)cc1 [GA] | 100% | 78% | 100% |  | 
O=C(OCC1CC1)c1ccc(-c2nnn[nH]2)cc1 [GB] | 100% | 82% | 97% |  | 
